Assay results as given in PubChem BioAssay AID1645868 (Buhrlage Lab, Dana-Farber Cancer Institute and Novartis …, 2021).
Calls of active or inactive are those of the source.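 How the source made its calls: active means maximal percent inhibition of the deubiquitinase OTUD3 of at least 30% across the tested doses; inactive means the rest.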

Target: OTU domain-containing protein 3 (Homo sapiens) (UniProt Q5T2D3)
Assay: Validation of screening hits, potency titration, in vitro enzymatic, OTU domain-containing protein 3 DUB inhibitors (AID 1645868)
Conditions: purified OTUD3, ubiquitin-rhodamine cleavage fluorescence, 2 h

Chain of OTU domain-containing protein 3 (Homo sapiens) (Q5T2D3 whole entry, looked up, the tested form may be a part): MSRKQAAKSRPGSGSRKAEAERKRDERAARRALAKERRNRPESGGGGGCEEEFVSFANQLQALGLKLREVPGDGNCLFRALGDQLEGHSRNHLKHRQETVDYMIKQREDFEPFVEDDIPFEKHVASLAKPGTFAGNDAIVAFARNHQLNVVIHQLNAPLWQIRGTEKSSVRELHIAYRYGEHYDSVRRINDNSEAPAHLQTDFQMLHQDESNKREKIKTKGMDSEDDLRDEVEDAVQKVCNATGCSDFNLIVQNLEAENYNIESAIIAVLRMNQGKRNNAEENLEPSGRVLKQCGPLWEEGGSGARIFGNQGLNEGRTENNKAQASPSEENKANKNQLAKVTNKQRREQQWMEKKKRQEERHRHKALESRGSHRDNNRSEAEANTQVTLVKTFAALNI

| SMILES | IC50 |
| --- | --- |
| CCc1nc2cc(NC(=O)c3cccc(N4CCCC4=O)c3)ccc2n1C | > 50 µM (inactive) |
| Cc1ccc(S(=O)(=O)N2CCCCC2)cc1NC(=O)Cc1cccc(F)c1 | > 50 µM (inactive) |
| COc1ccc2nc(Nc3ncc4c(n3)CCCC4=O)nc(C)c2c1 | > 50 µM (inactive) |
| COc1cccc(N2CCN(C(=O)c3cc(NC(C)=O)cc4nc(C)ccc34)CC2)c1 | > 50 µM (inactive) |
| O=C1c2c(O)cccc2C2(Oc3cccc4cccc(c34)O2)C2OC12 (stereo not given) | 22.5 µM |
| O=C(c1ccsc1)N1CCC2(C1)Nc1cccnc1NC2=NC1CCCC1 (stereo not given) | > 50 µM (inactive) |
| CC(=O)C1=C(O)[C@]2(O)C(=O)c3c(c(C)c4ccc(C)c(O)c4c3O)C[C@H]2[C@@H](N)C1=O | 2.13 µM |
| Cc1cc(NCC2CC2)n2nc(Nc3cc(Cl)ccc3C)nc2n1 | > 50 µM (inactive) |
| COc1ccc(C2C(C(=O)C(C)(C)C)N3c4ccccc4C=CC3C23C(=O)c2ccccc2C3=O)c(OC)c1 (stereo not given) | > 50 µM (inactive) |
| Cn1c(=O)c2c(ncn2CC(=O)NC2CCCc3ccccc32)n(C)c1=O (stereo not given) | > 50 µM (inactive) |
| Cc1c(CC(=O)Nc2nn[nH]n2)c(=O)oc2cc3c(cc12)CCC1(CCCCC1)O3 | > 50 µM (inactive) |
| Cc1cc(C)nc(SCCn2c(N3CCC(Cc4ccccc4)CC3)nc3c2c(=O)n(C)c(=O)n3C)n1 | > 50 µM (inactive) |
| CCOc1ccccc1C(=O)Oc1ccc2c(C)cc(=O)oc2c1 | 32.4 µM |
| COc1ccc(CN=C2NS(=O)(=O)C(c3ccc(F)cc3)=C2C)cc1OC | > 50 µM (inactive) |
| CSc1ccc(CNC(=O)CC2CCN(S(=O)(=O)c3ccc(C)cc3)CC2)cc1 | 30.7 µM |
| CCCCCC(=O)N1c2ccccc2NC2=C(C(=O)CC(c3ccc(C(C)(C)C)cc3)C2)C1c1ccncc1 (stereo not given) | 19.7 µM |
| CC1=C(c2ccc(F)cc2)S(=O)(=O)N=C1Nc1ccc(Cl)cc1 | > 50 µM (inactive) |
| COc1cccc(NC(=O)Nc2ccc3nc4n(c(=O)c3c2)CCCC4)c1 | > 50 µM (inactive) |
| c1csc(CCN2CCc3nc4cccnc4cc3C2)c1 | > 50 µM (inactive) |
| CCn1cnc2c(-c3ccccc3)cn(CC(=O)NCc3ccc4c(c3)OCO4)c2c1=O | > 50 µM (inactive) |
| O=C(Nc1cccc(Br)c1)c1cc(-c2cccnc2)n[nH]1 | 10.4 µM |
| Cc1ccc(C)c(S(=O)(=O)N2CCN(c3ccc4nnc(-c5ccco5)n4n3)CC2)c1 | > 50 µM (inactive) |
| O=C(O)COc1ccccc1/C=C1\CCc2c1nc1ccccc1c2C(=O)O | > 50 µM (inactive) |

| SMILES | IC50 |
| --- | --- |
| CC(C)CCCCCCCCCCC(=O)N(C)[C@H](CO)C(=O)N[C@H](C)C(=O)NCC(=O)N(C)C1C(=O)N[C@@H](C)C(=O)NC(C(=O)O)Cc2ccc(O)c(c2)-c2cc1ccc2O (stereo not given in full) | > 50 µM (inactive) |
| COc1cccc(NC(=O)c2ccc(-c3csc(C)n3)cc2)c1 | > 50 µM (inactive) |
| CCCc1c(C(=O)O)c(O[C@H]2O[C@H](C)[C@@H](OC)[C@H](OC)[C@@H]2OC)cc2cc3c(c(O)c12)C(=O)c1c(O)cc(O[C@@H]2O[C@@H](C)[C@H](O[C@H]4O[C@H](C)[C@@H](OC)[C@H](OC)[C@@H]4O)[C@@H](OC)[C@H]2O)cc1C3=O | > 50 µM (inactive) |
| COC(=O)CC1CC23OC2(C(=O)c2c(O)cccc2C3=O)C(C)O1 (stereo not given) | > 50 µM (inactive) |
| COc1ccc(C2CC(c3ccc(C)cc3)N(C(=O)C3CC3)c3ncnn32)cc1 (stereo not given) | > 50 µM (inactive) |
| Cn1c(=O)c(C(=O)CN2CCN(c3ccc(O)cc3)CC2)c(N)n(Cc2ccccc2)c1=O | > 50 µM (inactive) |
| COc1ccc(NC(=O)c2[nH]nc3c2COc2ccccc2-3)c(OC)c1 | 19.1 µM |
| Cc1cc(O)c(Oc2cc(C)cc(O)c2O)c(O)c1 | 16.8 µM |
| O=C(NCc1cccnc1)c1cnn2c(C(F)(F)F)cc(-c3ccccc3)nc12 | > 50 µM (inactive) |
| O=C(Nc1cc(Cl)cc(Cl)c1)c1csnn1 | 32.8 µM |
| Cc1nn(-c2nc3ccccc3[nH]2)c2c1C(c1cccs1)CC(=O)N2 (stereo not given) | > 50 µM (inactive) |
| Cc1ccn(-c2ccc(NC(=O)c3ccccc3Sc3ccccc3C#N)cc2)n1 | 44.5 µM |
| Cc1ccc(C(=O)NCc2ccc(C(=O)Nc3cccc(C)c3)o2)cc1 | > 50 µM (inactive) |
| O=c1cc(CNc2ccc(Br)cc2)nc2nc(-c3ccccc3)[nH]n12 | > 50 µM (inactive) |
| CCN(C(=O)c1cc2c(s1)-c1ccccc1OC2)c1ccccc1F | > 50 µM (inactive) |
| CC(=O)N1CCc2cc(CNC(=O)Nc3cc(C)ccc3C)ccc21 | > 50 µM (inactive) |
| Cc1ccc2cccc(OCc3nnc(SCC(=O)c4ccc(Cl)cc4)n3C)c2n1 | 25.8 µM |
| COc1ccc(NC(=O)CS(=O)(=O)c2[nH]c(-c3ccc(C)cc3)nc2-c2ccccc2)cc1Cl | > 50 µM (inactive) |
| Cc1ccc(Cn2nnc(-c3noc(-c4ccc[nH]4)n3)c2C)cc1 | > 50 µM (inactive) |
| COc1ccc(OC)c(NC(=O)CSc2nc(C)nc3c2oc2ccccc23)c1 | > 50 µM (inactive) |
| Cc1ccc(CNC(=O)CCCn2c(=O)c3sccc3n(CC(=O)OCc3ccccc3)c2=O)cc1 | 3.54 µM |
| O=C(Nc1cc(F)c2nc(N3CCOCC3)ccc2c1)C1CC1 | > 50 µM (inactive) |
